Assay results as given in PMC10685318, “Trans-cyclosulfamidate mannose-configured cyclitol allows isoform-dependent inhibition of GH47 α-D-mannosidases through a bump–hole strategy” (Chemical Science, 2023).

Biological target: T1, MAN2A2 (Homo sapiens, UniProt P49641)
T1 construct: expressed in transfected cells
T1 sequence (P49641 1-1150): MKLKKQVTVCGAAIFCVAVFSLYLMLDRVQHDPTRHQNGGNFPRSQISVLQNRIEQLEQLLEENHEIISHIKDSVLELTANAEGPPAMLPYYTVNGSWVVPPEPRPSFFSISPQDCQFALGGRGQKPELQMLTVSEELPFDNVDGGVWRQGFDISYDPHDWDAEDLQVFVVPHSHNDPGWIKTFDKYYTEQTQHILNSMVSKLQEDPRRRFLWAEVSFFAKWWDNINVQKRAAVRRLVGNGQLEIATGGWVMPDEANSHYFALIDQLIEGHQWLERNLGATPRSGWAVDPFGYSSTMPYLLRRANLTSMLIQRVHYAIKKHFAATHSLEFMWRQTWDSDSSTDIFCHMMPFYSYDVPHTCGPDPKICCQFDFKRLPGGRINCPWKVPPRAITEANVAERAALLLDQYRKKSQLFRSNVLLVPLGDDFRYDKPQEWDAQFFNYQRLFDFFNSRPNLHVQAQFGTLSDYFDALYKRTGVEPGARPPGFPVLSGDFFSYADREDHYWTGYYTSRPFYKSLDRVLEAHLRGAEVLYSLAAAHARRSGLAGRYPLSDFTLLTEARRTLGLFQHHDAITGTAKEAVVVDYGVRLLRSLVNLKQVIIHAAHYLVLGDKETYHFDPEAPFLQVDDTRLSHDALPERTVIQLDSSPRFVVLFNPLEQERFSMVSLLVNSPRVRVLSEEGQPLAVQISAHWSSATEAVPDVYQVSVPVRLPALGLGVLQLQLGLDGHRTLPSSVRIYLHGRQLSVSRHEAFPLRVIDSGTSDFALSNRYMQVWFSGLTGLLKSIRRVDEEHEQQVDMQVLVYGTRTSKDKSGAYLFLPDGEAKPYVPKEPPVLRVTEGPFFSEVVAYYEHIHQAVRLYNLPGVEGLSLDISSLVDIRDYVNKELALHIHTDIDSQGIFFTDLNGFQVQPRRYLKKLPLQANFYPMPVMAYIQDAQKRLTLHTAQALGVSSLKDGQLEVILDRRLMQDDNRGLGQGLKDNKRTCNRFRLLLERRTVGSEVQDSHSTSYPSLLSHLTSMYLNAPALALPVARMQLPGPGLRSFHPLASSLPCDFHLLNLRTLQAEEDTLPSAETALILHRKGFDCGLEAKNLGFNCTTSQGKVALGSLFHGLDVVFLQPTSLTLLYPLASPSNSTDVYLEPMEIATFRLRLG
Experiment: 4-MU-α-man activity assay in overexpressed cell lysates
Assay type: biochemical
Description: Finally, selectivity versus a panel of related exo-mannosidases was investigated. We first tested inhibition against all five human GH38 retaining α-mannosidases in overexpressed cell lysates using 4-methylumbelliferyl-α-mannoside (4-MU-α-man): Golgi mannosidase II and IIx (MAN2A1 and MAN2A2), cytosolic MAN2C1 and lysosomal MAN2B1 and MAN2B2. This α-mannosidase family follows a different conformational itinerary than GH47: ^0S2 → B2,5 → ^1S5.[35] […] Of note, the presence of cobalt has been associated with conformational changes in the active site of some GH38 α-mannosidases, which might affect the binding interaction with inhibitors.[36] Nevertheless, additional research is required to explore which specific metal ion is present in the MAN2C1 active site in its in vivo state.
Trans-Cyclosulfamidate Cyclitols Males et al.
2.3 GH38 α-mannosidases and GH2 β-mannosidase inhibition studies
All chemicals were of analytical grade and purchased from Sigma-Aldrich unless stated otherwise.
Optimal stability of cell homogenates and enzyme working stocks was ensured by preparation and temporary storage on ice. Cell homogenates were prepared and used on the same day. Protein concentrations were quantified using the Pierce BCA Protein Assay Kit (ThermoFisher). Protein samples were measured in clear flat-bottom polystyrene 96 well microplates (Greiner Bio-One) using a EMax Plus Microplate Reader (Molecular Devices). Activity measurements of human GH38 α-mannosidases and bacterial β-mannosidase BtMan2A were performed in black flat-bottom polystyrene 96 wells microplates (Greiner Bio-One) and total fluorescence was measured using a Perkin Elmer LS-55 fluorescence spectrometer at wavelengths λex = 366 and λem = 445 nm, with the signal optimized for medium gain readings. The fluorescence values of each enzyme sample were corrected for the background signal of a blank sample containing no enzyme. In the case of IC50 determinations, values were normalized against a control sample containing enzyme without added inhibitor. For a single experiment, three separate curves were fitted from a technical triplicate by setting the inhibitor concentration in µM against the normalized response using GraphPad Prism 8.4.2 software. The Prism functions ‘[inhibitor] versus normalized response’ and ‘[inhibitor] versus normalized response -- variable slope’ were compared for each curve using the Akaike’s Information Criterion method to select the preferred model. Reported IC50 values are mean ± standard deviation from a biological […]
General cell culture protocol
HEK293T cells were grown to confluency at 37 °C under a 5% CO2 atmosphere in Dulbecco’s Modified Eagle’s Medium (DMEM) with a high glucose concentration (Capricorn Scientific, DMEM-HPXA) that was supplemented with 10% fetal calf serum, 0.1% (w/v) penicillin/streptomycin and 1% (v/v) Glutamax. Cells were passaged twice a week to new round polystyrene (PS) tissue culture dishes (Sarstedt) by detachment off the former culture plates by careful pipetting. To prepare cell pellets for activity measurements, plates were grown to confluency and harvested in phosphate buffered saline (PBS). After centrifugation at 1500 rpm for 5 min, the remaining PBS was aspirated and the cells were resuspended in fresh PBS. The concentration of the resulting suspension was then counted using a TC20 automated cell counter (BioRad). Aliquots were centrifuged at 2000 rpm for 5 min and the resulting cell pellets were stored at -80 °C until further use.
4-MU activity assay protocol for human GH38 α-mannosidases
HEK293T cells stably overexpressing human GH38 α-mannosidases MAN2A1, MAN2A2, MAN2B1, MAN2B2 and MAN2C1 were prepared as previously described[11] and were kindly donated by Dr. C. L.
Kuo. Homogenates were prepared by sonicating cell pellets (Sonics VibraCell, 5x1 s with 30 s interval at 20% amplitude) in 150 mM McIlvain buffer of pH 5.5 (MAN2A1, MAN2A2), pH 4.5 (MAN2B1, MAN2B2) or pH 6.7 (MAN2C1) containing either 2 mM ZnCl2 (MAN2A1, MAN2A2, MAN2B1, MAN2B2) […]

How did the “activity when the buffer was enriched with CoCl2” value (CoCl2) turn out when `O=S1(=O)N[C@@H]2[C@@H](O)[C@@H](O)[C@H](O)[C@@H](CO)[C@H]2O1` [compound 6, 1,6-trans-manno-cyclosulfamidate] was run?
Its value is “no activity”.

What about the IC50 (Zn2+) of the same molecule?
Its IC50 is over 1000 µM.
